Assay results as given in patent US6741954B2, “Selection method for odorants” (Symrise GmbH & Co. KG, priority 2000, dated 2004).
Like-named read-outs stand apart in the source and are kept apart here. Each block holds one compound with its values, some of them ahead of it.

Columns and labels:
Format in all cases: physicochemical
[1] = Headspace above the wet washed hair: relative partition parameter headspace/shampoo (SPME-GC)
Method: (§1) The procedure is analogous in all examples.
The example reflects the scent impression, which is perceived from freshly washed hair. The shampoo is prepared as is generally customary. The mixture of 39 odorants is incorporated into the above-mentioned shampoo (1st) in an amount of 1%. A hair tress (2.5 g) is washed in 100 ml of a 20% shampoo solution in water by immersing 5-10 times and stirring, and then rinsed in 100 ml of clear water by immersing it three times. The hair tress is carefully patted with thin cellulose. The moist hair tress is transferred to a 100 ml Erlenmeyer flask sealed with a septum and left to stand for 3 h. The headspace above the washed and rinsed hair tress is extracted over 15 min using solid phase microextraction (SPME). The SPME needle is desorbed in a GC injector, and a gas chromatogram is recorded. […] The analytical results are then used mathematically as described above.

[2] = Headspace above the shampoo: relative partition parameter (SPME-GC); conditions: log of amount in headspace relative to amount in shampoo; 1% odorant mixture, SPME 15 min
Method: as §1
The example reflects the scent impression, which is perceived from a freshly opened bottle of shampoo. The mixture of 39 odorants is incorporated into the above-mentioned shampoo (1) in an amount of 1%. 20 g of the shampoo are transferred to a 100 ml Erlenmeyer flask sealed with a septum. The headspace above the shampoo is extracted using a SPME over 15 min. […] The analytical results are then used mathematically as described above.

[3] = Headspace above the soap bar: relative partition parameter (SPME-GC)
Method: as §1
The example reflects the scent impression, which is perceived from a fresh bar of soap. […] 20 g of the grated soap are transferred to a 100 ml Erlenmeyer flask sealed with a septum. The headspace above the shampoo is extracted using a SPME over 15 min. […] The analytical results are then used mathematically as described above.

[4] = Headspace above the washing powder: relative partition parameter (SPME-GC)
Method: as §1
The example reflects the scent impression, which is perceived from a freshly opened pack of laundry detergent. The mixture of 39 odorants is incorporated in the above-mentioned washing powder in an amount of 0.5%. 20 g of the washing powder are transferred to a 100 ml Erlenmeyer flask sealed with a septum. The headspace above the shampoo is extracted using a SPME over 15 min. […] The analytical results are then used mathematically as described above.

[5] = Headspace above the candle wax: relative partition parameter (SPME-GC); conditions: log of amount in headspace relative to amount in candle wax; 5% odorant mixture, grated nonburning candle, SPME 15 min
Method: as §1
The example reflects the scent impression, which is perceived from a nonburning candle. The mixture of 39 odorants is incorporated into a candle in an amount of 5%. 20 g of the grated candle are transferred to a 100 ml Erlenmeyer flask sealed with a septum. The headspace above the candle is extracted using a SPME over 15 min. […] The analytical results are then used mathematically as described above.

[6] = Headspace above the fresh gel room air freshener: relative partition parameter (SPME-GC); conditions: log of amount in headspace relative to amount in gel; 5% odorant mixture, 10 liter vessel, 1 h, SPME 15 min
Method: as §1
The example reflects the scent impression, which is perceived above a fresh gel room air freshener. The mixture of 39 odorants is incorporated into an air freshener in an amount of 5%. 100 g of the air freshener are placed in its customary presentation form in a large sealed 10 liter vessel. The air freshener is left to stand for one hour. The headspace above the air freshener is extracted using a SPME over 15 min. […] The analytical results are then used mathematically as described above.

[7] = Headspace above the solution of WC scented block cleaner: relative partition parameter (SPME-GC); conditions: log of amount in headspace above 1% solution in water relative to amount in WC block; 1% odorant mixture, SPME 15 min
Method: as §1
The example reflects the scent impression, which is perceived from a WC scented block cleaner. The mixture of 39 odorants is incorporated into the toilet block in an amount of 1%. A 1% solution of the toilet block in water is prepared. 20 ml of this solution are transferred to a 100 ml Erlenmeyer flask sealed with a septum. The headspace above the shampoo is extracted by means of a SPME over 15 min. […] The analytical results are then used mathematically as described above.

[8] = log of amount in headspace above wet washed hair relative to amount in shampoo, 1% odorant mixture, 3 h standing, SPME 15 min
[9] = log of amount in headspace relative to amount in soap, 1.2% odorant mixture, grated soap, SPME 15 min
[10] = log of amount in headspace relative to amount in washing powder, 0.5% odorant mixture, SPME 15 min

Compound: CC(C)=CCC/C(C)=C/CO [Geraniol]
- Activity (logarithmic partition parameter above wet hair) [1, 8]: −2.043
- Activity (logarithmic partition parameter above shampoo) [2]: −1.839
- Activity (logarithmic partition parameter above soap) [3, 9]: −0.952
- Activity (logarithmic partition parameter above washing powder) [4, 10]: −0.976
- Activity (logarithmic partition parameter above candle wax) [5]: −1.273
- Activity (logarithmic partition parameter above gel room air fresheners) [6]: −0.365
- Activity (logarithmic partition parameter above dissolved WC scented block cleaners) [7]: −2.045

Compound: CC(=O)/C=C/C1=C(C)CCCC1(C)C [Ionone, beta]
- Activity (logarithmic partition parameter above wet hair) [1, 8]: −1.636
- Activity (logarithmic partition parameter above shampoo) [2]: −1.282
- Activity (logarithmic partition parameter above soap) [3, 9]: −0.837
- Activity (logarithmic partition parameter above washing powder) [4, 10]: −0.778
- Activity (logarithmic partition parameter above candle wax) [5]: −1.606
- Activity (logarithmic partition parameter above gel room air fresheners) [6]: −0.662
- Activity (logarithmic partition parameter above dissolved WC scented block cleaners) [7]: −0.819

Compound: C=CC(C)(O)CCC=C(C)C (stereo not shown) [Linalool]
- Activity (logarithmic partition parameter above wet hair) [1, 8]: −1.119
- Activity (logarithmic partition parameter above shampoo) [2]: −0.511
- Activity (logarithmic partition parameter above soap) [3, 9]: −0.028
- Activity (logarithmic partition parameter above washing powder) [4, 10]: 0.057
- Activity (logarithmic partition parameter above candle wax) [5]: −0.420
- Activity (logarithmic partition parameter above gel room air fresheners) [6]: 0.376
- Activity (logarithmic partition parameter above dissolved WC scented block cleaners) [7]: −1.299

Compound: CC(=O)OC(C)(C)C1CC=C(C)CC1 (stereo not shown) [Terpinyl acetate]
- Activity (logarithmic partition parameter above wet hair) [1]: −1.135
- Activity (logarithmic partition parameter above shampoo) [2]: −0.561
- Activity (logarithmic partition parameter above soap) [3]: −0.253
- Activity (logarithmic partition parameter above washing powder) [4]: −0.196
- Activity (logarithmic partition parameter above candle wax) [5]: −0.979
- Activity (logarithmic partition parameter above gel room air fresheners) [6]: −0.029
- Activity (logarithmic partition parameter above dissolved WC scented block cleaners) [7]: −0.524

Compound: CC1=CCC2CC1C2(C)C (stereo not drawn) [alpha-Pinene]
- Activity (logarithmic partition parameter above wet hair) [1, 8]: −0.776
- Activity (logarithmic partition parameter above shampoo) [2]: 0.769
- Activity (logarithmic partition parameter above soap) [3, 9]: 0.395
- Activity (logarithmic partition parameter above washing powder) [4, 10]: 0.377
- Activity (logarithmic partition parameter above candle wax) [5]: 0.819
- Activity (logarithmic partition parameter above gel room air fresheners) [6]: −0.273
- Activity (logarithmic partition parameter above dissolved WC scented block cleaners) [7]: −1.833

Compound: C=C1CCC2CC1C2(C)C (stereo not drawn) [beta-Pinene]
- Activity (logarithmic partition parameter above wet hair) [1, 8]: −0.647
- Activity (logarithmic partition parameter above shampoo) [2]: 0.830
- Activity (logarithmic partition parameter above soap) [3, 9]: 0.469
- Activity (logarithmic partition parameter above washing powder) [4, 10]: 0.415
- Activity (logarithmic partition parameter above candle wax) [5]: 0.701
- Activity (logarithmic partition parameter above gel room air fresheners) [6]: −0.090
- Activity (logarithmic partition parameter above dissolved WC scented block cleaners) [7]: −1.682

Compound: Caryophyllene
- Activity (logarithmic partition parameter above wet hair) [1]: −1.080
- Activity (logarithmic partition parameter above shampoo) [2]: −0.279
- Activity (logarithmic partition parameter above soap) [3]: −0.150
- Activity (logarithmic partition parameter above washing powder) [4]: −0.385
- Activity (logarithmic partition parameter above candle wax) [5]: −1.062
- Activity (logarithmic partition parameter above gel room air fresheners) [6]: −0.011
- Activity (logarithmic partition parameter above dissolved WC scented block cleaners) [7]: −0.390

The remaining lines, values ahead:

- Activity (logarithmic partition parameter above wet hair) [1, 8]: −1.559
- Activity (logarithmic partition parameter above shampoo) [2]: −1.157
- Activity (logarithmic partition parameter above soap) [3, 9]: −0.701
- Activity (logarithmic partition parameter above washing powder) [4, 10]: −0.697
- Activity (logarithmic partition parameter above candle wax) [5]: −1.441
- Activity (logarithmic partition parameter above gel room air fresheners) [6]: −0.515
- Activity (logarithmic partition parameter above dissolved WC scented block cleaners) [7]: −1.152
Compound: CC(=O)/C=C/C1C(C)=CCCC1(C)C (stereo not drawn) [Ionone, alpha]

- Activity (logarithmic partition parameter above wet hair) [1, 8]: −2.089
- Activity (logarithmic partition parameter above shampoo) [2]: −1.900
- Activity (logarithmic partition parameter above soap) [3, 9]: −1.331
- Activity (logarithmic partition parameter above washing powder) [4, 10]: −1.448
- Activity (logarithmic partition parameter above candle wax) [5]: −2.105
- Activity (logarithmic partition parameter above gel room air fresheners) [6]: −1.548
- Activity (logarithmic partition parameter above dissolved WC scented block cleaners) [7]: −1.400
Compound: CC(C=O)Cc1ccc(C(C)(C)C)cc1 (stereo not shown) [Lilial]

- Activity (logarithmic partition parameter above wet hair) [1, 8]: −1.349
- Activity (logarithmic partition parameter above shampoo) [2]: −0.742
- Activity (logarithmic partition parameter above soap) [3, 9]: 0.170
- Activity (logarithmic partition parameter above washing powder) [4, 10]: −0.176
- Activity (logarithmic partition parameter above candle wax) [5]: −0.632
- Activity (logarithmic partition parameter above gel room air fresheners) [6]: 0.245
- Activity (logarithmic partition parameter above dissolved WC scented block cleaners) [7]: −1.636
Compound: OCCc1ccccc1 [PEA, phenylethyl alcohol]

- Activity (logarithmic partition parameter above wet hair) [1, 8]: −0.299
- Activity (logarithmic partition parameter above shampoo) [2]: 0.844
- Activity (logarithmic partition parameter above soap) [3, 9]: 1.180
- Activity (logarithmic partition parameter above washing powder) [4, 10]: 1.167
- Activity (logarithmic partition parameter above candle wax) [5]: 0.726
- Activity (logarithmic partition parameter above gel room air fresheners) [6]: 0.674
- Activity (logarithmic partition parameter above dissolved WC scented block cleaners) [7]: −1.070
Compound: CC(=O)OCC=C(C)C [Prenyl acetate]

- Activity (logarithmic partition parameter above wet hair) [1, 8]: −1.029
- Activity (logarithmic partition parameter above shampoo) [2]: −0.232
- Activity (logarithmic partition parameter above soap) [3, 9]: 0.486
- Activity (logarithmic partition parameter above washing powder) [4, 10]: 0.246
- Activity (logarithmic partition parameter above candle wax) [5]: −0.341
- Activity (logarithmic partition parameter above gel room air fresheners) [6]: 0.568
- Activity (logarithmic partition parameter above dissolved WC scented block cleaners) [7]: −1.320
Compound: CC(=O)OC(C)c1ccccc1 (stereo not shown) [Styrolyl acetate]

- Activity (logarithmic partition parameter above wet hair) [1, 8]: −0.074
- Activity (logarithmic partition parameter above shampoo) [2]: 1.009
- Activity (logarithmic partition parameter above soap) [3, 9]: 0.819
- Activity (logarithmic partition parameter above washing powder) [4, 10]: 0.771
- Activity (logarithmic partition parameter above candle wax) [5]: 0.342
- Activity (logarithmic partition parameter above gel room air fresheners) [6]: 0.126
- Activity (logarithmic partition parameter above dissolved WC scented block cleaners) [7]: −1.230
Compound: CC1=CCC(C(C)C)=CC1 [gamma-Terpinene]
